Measured values as given in article PMC12677652, “Procyanidin B3 and Its Derivatives Alleviate Neuronal Injury by Targeting G3BP1 for Ischemic Stroke Therapy” (Advanced Science, 2025).

Legend:
[1] = test system: eIF2α phosphatases (GADD34 and PPP1R15B/CReP) and eIF2α kinases (PERK and GCN2); experiment: RT-qPCR of key factors regulating SG dynamics; format: cell-based; conditions: 50 µM, 6 h of reperfusion following OGD, HT22 cells
Description: (§1) Total RNA from HT22 cells was extracted with Trizol. The concentration and purity of RNA were determined by Nanodrop (Thermo Scientific, USA), and RNA was reverse transcribed by PrimeScript Reverse Transcription Master Mix (TaKaRa, Japan). Then RT‐qPCR was performed using Hieff qPCR SYBR Green Master Mix (Yeasen, China). The expression level of the transcripts was normalized to the constitutive expression level of β‐actin. The primers used for amplification are listed in Table S4 (Supporting Information).

G3BP1 [2] = target: T1, G3BP1 (Mus musculus, UniProt P97855); experiment: Cellular thermal shift assay; format: binding; conditions: HT22 cell lysate
T1 construct: endogenous in cells; host or cells: HT22 cell lysate
T1 sequence (P97855 whole entry): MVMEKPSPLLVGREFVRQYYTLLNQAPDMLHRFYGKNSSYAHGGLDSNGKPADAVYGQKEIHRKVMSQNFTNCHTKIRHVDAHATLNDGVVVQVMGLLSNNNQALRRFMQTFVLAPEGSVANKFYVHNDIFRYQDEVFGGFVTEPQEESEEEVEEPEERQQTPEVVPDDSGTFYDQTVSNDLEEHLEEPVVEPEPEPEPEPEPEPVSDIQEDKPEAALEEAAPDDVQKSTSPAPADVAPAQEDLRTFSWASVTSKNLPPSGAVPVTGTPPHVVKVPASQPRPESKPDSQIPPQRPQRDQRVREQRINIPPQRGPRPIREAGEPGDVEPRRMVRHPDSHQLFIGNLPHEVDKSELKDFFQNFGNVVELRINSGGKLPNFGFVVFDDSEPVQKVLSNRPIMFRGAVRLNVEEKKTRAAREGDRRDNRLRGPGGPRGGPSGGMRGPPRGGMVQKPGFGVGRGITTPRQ
Description: HT22 cells were grown to 90% confluency and harvested by trypsin and resuspended in 1 mL PBS. The samples were subjected to three freeze–thaw cycles in liquid nitrogen. Each cell lysate was centrifuged (12000 g for 30 min at 4 °C), and the supernatant was collected. The supernatants were treated with PB3 (or PBS control) for 20 min. Subsequently, they were aliquoted into Eppendorf tubes and heated for 3 min to 44, 48, 52, 56, or 60 °C. The soluble fractions were analyzed by SDS‐polyacrylamide gel electrophoresis and immunoblotted with anti‐G3BP1 antibody.

G3BP1‐bound mRNA = experiment: RIP assay with RT-qPCR of G3BP1-bound mRNAs; format: cell-based; conditions: 50 µM, 6 h of reperfusion following OGD
Description: as §1
RIP assay was performed with the BeyoRIP RIP Assay Kit (Beyotime, China) using the manufacturer's protocol. HT22 cells were washed with PBS and centrifuged, then the cell was resuspended in complete lysis buffer. 3–5 µg antibody was pre‐bound to protein A/G agarose beads in NT2 wash buffer for 0.5 h and then incubated with 270 µL cell lysates for 4 h at 4 °C with rotation, and RNA was eluted from the beads by incubating with 100 µL elution buffer for 0.5 h at 55 °C. The eluted RNA was dissolved with RNase‐free water. Enrichment of certain fragments was determined by RT‐qPCR.

G3BP1 [3] = experiment: Immunoblotting of G3BP1 protein level; format: cell-based
Description: Cells and tissues were homogenized in RIPA buffer (Beyotime, China) containing protease inhibitors (Biovision, USA) on ice for 30 min. After centrifugation (13000 r min^−1, 4 °C) for 10 min, the resulting supernatant was collected. The protein concentrations were determined by a BCA protein assay kit (Thermo Scientific, USA). After separating a 10% sodium dodecyl sulfate (SDS)‐polyacrylamide gel, protein on the gel was then transferred onto nitrocellulose membranes (Merck, USA), which were blocked with 5% bovine serum albumin for 1 h to prevent non‐specific binding. Then, the anti‐caspase 3 antibody (catalog no. 9662, Cell Signaling Technology, USA), anti‐Bcl‐2 antibody (catalog no. GTX100064, GeneTex, USA), anti‐G3BP1 antibody (catalog no. 66486‐1‐Ig, Proteintech, China), anti‐β‐tubulin antibody (catalog no. 66240‐1‐Ig, Proteintech, China), and anti‐β‐actin antibody (catalog no. 66009‐1‐Ig, Proteintech, China) were used for treating the membrane overnight at 4 °C. Bound antibodies were detected with the species‐appropriate horseradish peroxidase‐labeled secondary antibody (Jackson ImmunoResearch, USA) using ECL reagents (ShareBio, China). Protein‐specific signals were detected using a Bio‐Rad Imager (Bio‐Rad, USA), and the bands were quantified by densitometric analysis software (ImageJ). β‐tubulin or β‐actin was used as a loading control.

bEnd.3 cells = experiment: In vitro BBB model, Transwell transport apical-to-basolateral; format: in vitro ADME; conditions: 100 µM, apical-to-basolateral, 30, 60, and 120 min
Description: The Transwell filters (0.4 µm pore) were used to evaluate the crossing capacity of the BBB of selected compounds. The basolateral side of the wells was filled by DMEM (Gibco, USA) with 10% FBS. Then, bEnd.3 cells were seeded on the apical side of the semi‐permeable filter in a humidified atmosphere. The culture medium was changed on alternate days. To verify if the cell monolayer formed junctions, the resistance was daily monitored by determining the trans‐endothelial electrical resistance. The resistance value of an empty filter was subtracted from each measurement. After reaching the confluence, bEnd.3 monolayer cells were washed three times with PBS, and the basolateral compartment was filled with Hanks' Balanced Salt Solution (HBSS). The permeability experiments across the cell monolayer were performed in the apical‐to‐basolateral direction. Transport experiments were assessed by placing the compounds, prepared in HBSS, on the upper side of the monolayers (100 µM/300 µL). At different time points (30, 60, and 120 min), 500 µL samples were taken from the basolateral side, and to replace the withdrawn volume, the same volume of preheated HBSS was added. The amount of cellular drug uptake was measured using a Waters e2695 system (Waters, USA).

tMCAO mice = experiment: Long-term neurological recovery after tMCAO; format: in vivo; conditions: 48 mg/kg daily, i.p.
Description: The modified neurological severity score was applied according to the previous report.^[ [63] ^] The range of the neurological function score extends from 0 to 18 points. A higher score represents more severe neurological deficits. In the rotarod test, according to the previous report,^[ [64] ^] mice were tested under the accelerating rotor mode with acceleration from 5 to 20 rpm. The final score for statistical analysis was expressed as the mean time that mice could remain on the rod.

Row | thermal stability of G3BP1 (G3BP1 [2]) | transport efficiency (bEnd.3 cells) | SMILES | expression of eIF2α phosphatases (GADD34 and PPP1R15B/CReP) [1] | expression of two eIF2α kinases (PERK and GCN2) [1] | level of G3BP1‐bound mRNA (G3BP1‐bound mRNA) | protein level of G3BP1 (G3BP1 [3]) | body weight (tMCAO mice) | modified neurological severity scores (tMCAO mice) | rotarod test (tMCAO mice; at the end of treatment)
1 | enhanced the thermal stability of G3BP1 | – | Oc1cc(O)c2c(c1)O[C@H](c1ccc(O)c(O)c1)[C@@H](O)[C@@H]2c1c(O)cc(O)c2c1O[C@H](c1ccc(O)c(O)c1)[C@@H](O)C2 [Compound 1, procyanidin B3] | significantly lower | significantly higher | higher | did not perturb the protein level of G3BP1 | – | – | –
2 | – | better than that of 1 | CC(C)c1c(O)cc(O)c2c1O[C@H](c1ccc(O)c(O)c1)[C@@H](O)[C@@H]2c1c(O)cc(O)c2c1O[C@H](c1ccc(O)c(O)c1)[C@@H](O)C2 [Compound 6c, 8‐Isopropyl‐(+)‐Catechin‐(4α,8)‐(+)‐Catechin] | – | – | – | – | mitigated the tendency toward weight loss | lower scores than the tMCAO group | showed improvements compared with the tMCAO group
